Among the data in publication PMC10191325 (PLOS Neglected Tropical Diseases, 2023) are Kd and IC50 values, retold here.

Assay [1] deals with T1, WbDHFR (dihydrofolate reductase) (Wuchereria bancrofti, UniProt J9F199). The experiment in a line: X-ray crystal structure ([…] Å) and tryptophan fluorescence equilibrium titration. The class given is binding. The arrangement: gene WUBG_00817; open reading frame with engineered N-terminal His6-tag.
Assay [2] has as its target T1, WbDHFR (dihydrofolate reductase). The assay is described as follows: biochemical. On the set-up: gene WUBG_00817.

Each structure is given as a SMILES string.

One may read the Kd as a measure of binding affinity in units of concentration. Lower therefore signals higher affinity. On to `Nc1nc2ncc(CNc3ccc(C(=O)N[C@@H](CCC(=O)O)C(=O)O)cc3)nc2c(=O)[nH]1` [folate], for which the Kd in assay [1] was 23 ± 4 nM.
In general, IC50 refers to the concentration that gives 50% inhibition. Higher therefore signals weaker potency. The molecule `COc1cc(NCc2ccc3nc(N)nc(N)c3c2C)cc(OC)c1OC` [TMX, trimetrexate] returned an IC50 in assay [2] of 490 ± 160 nM.
Molecule `NC(=O)C1=CN([C@@H]2O[C@H](COP(=O)(O)OP(=O)(O)OC[C@H]3O[C@@H](n4cnc5c(N)ncnc54)[C@H](OP(=O)(O)O)[C@@H]3O)[C@@H](O)[C@H]2O)C=CC1` [NADPH] showed a Kd in assay [1] of 90 ± 29 nM.
